According to patent US20190127797A1, “BIOMARKERS FOR THE DIAGNOSIS OF INFLAMMATION-RELATED DISEASES” (UNIVERSITE DE BORDEAUX, priority 2016, published 2019):

Legend:
Assay type in all cases: cell-based, human
[1] = tested on: NLRP3; experiment: NLRP3 expression by qPCR in primary monocytes; settings: 100 μM, 6 hours, GAPDH-standardized, ratio relative to control
Experimental: (§1) FIG. 3. High levels of oxidative stress and increased nucleotide metabolites in IMH individuals can induce cytokine production and expression of inflammasome genes in primary monocytes. Broad-coverage metabolomics profiling was conducted on available serum samples from year 2011 (9 IML and 11 IMH individuals). […] Functional annotation and pathway analysis was conducted using MetPA. A significant enrichment for several metabolic pathways was identified for these metabolites (P<0.05) (a). Conversion of cysteine to cystine; and from arachidonic acid to 8-isoprostane, in the presence of ROS (b). Increased circulating levels of cystine and 8-isoprostane in IMH (b and c) indicate higher levels of oxidative stress (c and d). Adenine, DL-4-hydroxy-3-methoxymandelic acid (vanillylmandelate) (MMA), scyllo-inositol and N4-acetylcytidine (N4A) were selected based on their levels of significance (Q<0.001, see Table 5) and representing different metabolic pathways, to assess their ability to induce IL1FC and expression of NLRC4 in primary monocytes from four healthy donors (shown are the results of one representative experiment). Adenosine was used as a positive control. A significant induction of IL1FC is observed for adenosine and adenine, but not with other compounds (e). The highest dose of each compound (100 μM) was used to determine expression of NLRC4 and NLRP3 by qPCR on the same samples used for cytokine determination (e). […] As previously shown in mice, adenosine treatment up-regulates NLRP3 gene expression (P<0.01) (f). Expression of GAPDH was used to standardize the samples, and the results are expressed as a ratio relative to control. Error bars reflect experimental variability.
(§2) The dysfunction in nucleotide metabolism and in mitochondrial bioenergetics described above may explain the generation of circulating metabolites and chronic oxidative stress, respectively. To study whether the circulating metabolites found in higher levels in the sera from IMH compared to IML subjects up-regulate NLRC4 gene expression and/or cytokine production, four candidate compounds identified from our analysis were selected. They represent distinct metabolic pathways. These included adenine (purine metabolism), DL-4-hydroxy-3-methoxymandelic acid (vanillylmandelate) (phenylalanine and tyrosine metabolism), scyllo-inositol (inositol metabolism) and N4-acetylcytidine (N4A) (pyrimidine metabolism) (Table 5). Adenosine was included as a positive control for IL1FC production. Primary monocytes from four healthy donors were isolated from fresh […] blood and incubated with increasing concentrations of the indicated compounds for 6 hours. […] We also tested whether these stimulations lead to changes in the expression of NLRC4 and NLRP3 (used as a positive control for adenosine stimulation). […] More biochemical studies are necessary to address this.
(§3) Adenosine, adenine, DL-4-hydroxy-3-methoxymandelic acid, scyllo-inositol were all purchased form Sigma (Sigma-Aldrich, St. Louis, Mo.) and N4-acetylcytidine was purchased from Santa Cruz Biotechnology (Dallas, Tex.). Compounds were tested at the indicated concentrations on isolated monocytes from a healthy donor. […] Samples were then transferred to the Human Immune Monitoring Core at Stanford for quantification of cytokines, chemokines and growth factors using the 63-plex Luminex system, as described above. […]

[2] = tested on: NLRC4; experiment: NLRC4 expression by qPCR in primary monocytes; settings: 100 μM, 6 hours, GAPDH-standardized, ratio relative to control
Experimental: as §1, §2, §3

[3] = tested on: primary monocytes; experiment: IL1FC (IL-1α, IL-1β) production in primary monocytes treated with metabolites; settings: primary monocytes from four healthy donors, increasing concentrations, 6 hours
Experimental: as §1
The dysfunction in nucleotide metabolism and in mitochondrial bioenergetics described above may explain the generation of circulating metabolites and chronic oxidative stress, respectively. To study whether the circulating metabolites found in higher levels in the sera from IMH compared to IML subjects up-regulate NLRC4 gene expression and/or cytokine production, four candidate compounds identified from our analysis were selected. They represent distinct metabolic pathways. […]
Adenosine, adenine, DL-4-hydroxy-3-methoxymandelic acid, scyllo-inositol were all purchased form Sigma (Sigma-Aldrich, St. Louis, Mo.) and N4-acetylcytidine was purchased from Santa Cruz Biotechnology (Dallas, Tex.). […] Samples were then transferred to the Human Immune Monitoring Core at Stanford for quantification of cytokines, chemokines and growth factors using the 63-plex Luminex system, as described above. […]

[4] = tested on: differentiated THP-1 cells; experiment: Cytokine secretion (ELISA) from differentiated THP-1 cells; settings: 6 hr; for production of IL-1β / production of IL-18 / production of TNF-α: without ATP pulse
Experimental: FIG. 4. N4-Acetylcytidine and Adenine induce the NLRC4 inflammasome. (a) Differentiated THP-1 cells were treated with ATP (5 mM, 30 min), or primed with LPS (1 μg/ml, 4 hr) and then pulsed with ATP; or treated with indicated concentrations (mM) of Adenine (Ad) or N4-Acetylcytidine (N4A) alone for 6 hr or (b) in combination, and then pulsed or not with ATP. Secretion of cytokines IL-1β, IL-18 and TNF-α were measured by ELISA from cell culture supernatants. (c) Differentiated THP-1 cells were treated with compounds as indicated (1 mM N4A; 300 μM Ad) for 6 hr or ATP 5 mM 30 min, cells were lysed and cell lysates were then immunoblotted with various antibodies to monitor expression of NLRs, Casp1, and prolL-1β. (d) Differentiated THP-1 cells were treated with compounds as before and cell lysates were submitted to immunoprecipitation with Biotinyl-YVAD-fmk peptide. Complexes were then recovered by using Streptavidin-sepharose beads and immunoblotted with anti-Caspase-1 p10 antibody. (e) Differentiated THP-1 cells were treated with compounds as before in the presence or not of Ac-YVAD-fmk or control DMSO, and IL-1β secretion was measured. (f) Differentiated WT or stable shTHP-1 cell lines were treated with compounds as before (1 mM N4A; 300 μM Ad) and IL-1β secretion was measured. To the right, western-blots showing protein expression of NLRC4 in stable shTHP-1 cell lines. (g) Bone marrow-derived macrophages from WT or KO mice as indicated were isolated and treated with combination of compounds (1 mM N4A; 300 μM Ad), and IL-1β secretion was measured. Data are expressed as concentration of cytokines (pg/ml) (mean±SD; n=3). * P<0.05, ** P<0.01.
In parallel experiments, differentiated THP-1 cells and a human monocytic cell Line were treated to address whether the metabolites N4A and adenine, alone or in combination, could induce inflammasome activation and cytokine secretion in vitro.
Adult male mice (12-18 week old) were divided into two groups: PBS or compound treated-mice (N4-Acetylcytidine+Adenine dissolved in PBS). Compound-treated mice were injected with N4-Acetylcytidine and Adenine (stock solution 20 mM each, 100 ul/25 g body weight, retro-orbital injection, once daily) or PBS. After 3 weeks of treatment, while they continued receiving daily injections of PBS or N4A+Adenine, mice from both groups were administered an infusion of human angiotensin II (AngII, #A9525, Sigma-Aldrich, St. Louis, Mo.) for another 2 weeks. Angll (140 ng/kg per min) was dissolved in 100 ul 20 mM (N4A+Adenine) or in 100 ul PBS and loaded into a small osmotic pump (Durect Corporation, Cupertino, Calif., USA). The osmotic pump was then implanted subcutaneously on the dorsal side around the neck of mice under anesthesia ([…]). Systolic blood pressure was measured every other day in conscious mice using tail-cuff plethysmography (Vistech System BP-2000, Apex, N.C., USA). Experiments with human THP-1 cells and primary blood platelets THP-1 monocytic cell lines were cultured in 6-well plates in RPMI media (supplemented with 10% Fetal Bovine Serum) and differentiated overnight with TPA (10 ng/ml). The day after, adherent cells were washed with fresh media and treated with agonists LPS ([…], 4 hrs) and ATP (5 mM, 30 min) or compounds Adenine/N4-Acetylcytidine at various concentrations.

[5] = tested on: primary platelets; experiment: Platelet activation, CD61/CD62P membrane expression by flow cytometry; settings: platelets of two healthy donors, 6 hrs at 37° C., various concentrations, CD61 and CD62P+
Experimental: Primary platelets were isolated from the blood of two donors and incubated for 6 hr at 37° C. with thrombin, or ADP, or various concentrations of Adenine or N4-Acetylcytidine. Platelet activation was monitored by measuring membrane expression of CD61 and CD62P by flow cytometry. Data are representative of at least three independent experiments with similar results. […] Thus, it was sought to determine whether [MUT] and adenine were able to activate human platelets in vitro. To do so, platelets were isolated from the blood of two healthy donors and incubated for 6 hrs at 37° C. with various concentrations of adenine or [MUT]. Thrombin, and ADP were used as controls and platelet activation was monitored by measuring membrane expression of CD61 and CD62P+ cells by flow cytometry. […] Human primary platelets were prepared from whole blood using a venepuncture in EDTA tube after a 20 min centrifugation at 1000 rpm without acceleration and break. Then the supernatant was harvested and 1 μM PGE1 was added. […] Platelets were then stimulated with thrombin (at 0.5 U/ml), ADP, or with the indicated concentrations of [MUT] or adenine, and activation was monitored by flow cytometry using 25 immunostaining of membrane markers with anti-CD61 (marker of platelet population), and anti-CD62-P (marker of activation involved in aggregation).

[6] = tested on: primary neutrophils; experiment: Primary neutrophil activation (RANKL, degranulation, IL-1β secretion); settings: 24 hr, various concentrations
Experimental: (b) Primary neutrophils were isolated from blood of healthy donors and incubated for 24 hr with various concentrations of adenine or N4A alone or in combination, and RANK-L+ cells were determined within the CD66b+ population. (c) Primary neutrophils were treated with N4A (1 mM) and/or adenine (1 mM) and the % of degranulated population was measured for each donor. (d) Primary neutrophils were treated as before with compounds as indicated and IL-1β secretion was measured from cell culture supernatants for each donor. Data are expressed as concentration of cytokines (pg/ml), or as fold increase with respect to non-treated (NT) condition as indicated. * P<0.05, ** P<0.01
In addition, the frequencies of 22 different cell subsets in IMH and IML older adults (N=22) were estimated and in a separate analysis, such frequencies were compared between young and older adults (N=86). For these analyses Cibersort (Newman et al. Robust enumeration of cell subsets from tissue expression profiles. Nature Methods 12, 453-457, 2015) was used, which uses gene expression profiles to characterize cell subset composition in complex tissues, such as whole blood. Significant differences were found in the estimated frequencies of circulating mast cells, as well as in the CD4 T regulatory cell compartment between young and older adults (P<0.01). […]

[7] = then pulsed with ATP (5 mM, 30 min)

Row | Compound | expression of NLRP3 [1] | expression of NLRC4 [2] | IL-1α production [3] | IL-1β production [3] | production of IL-1β [4] | production of IL-18 [4] | production of TNF-α [4] | percentage of activated platelets [5] | RANKL+ cells within the CD66b population [6] | secretion of IL-1β [4, 7] | secretion of IL-18 [4, 7]
1 | COc1cc(C(O)C(=O)O)ccc1O (racemic) [DL-4-hydroxy-3-methoxymandelic acid] | No effect | No effect |  |  |  |  |  |  |  |  | 
2 | Nc1ncnc2c1ncn2[C@@H]1O[C@H](CO)[C@@H](O)[C@H]1O [adenosine, reference compound] | increased expression of NLRP3 | no increase in NLRC4 was observed | significant increase | significant increase |  |  |  |  |  |  | 
3 | Nc1ncnc2[nH]cnc12 [adenine] | No effect | No effect | significant increase | significant increase | neither incubation with adenine nor with N4A alone had an effect | neither incubation with adenine nor with N4A alone had an effect | neither incubation with adenine nor with N4A alone had an effect | robustly induced a dose-dependent increase | induced a potent increase |  | 
4 | CC(=O)Nc1ccn([C@@H]2O[C@H](CO)[C@@H](O)[C@H]2O)c(=O)n1 [N4A, N4-acetylcytidine] | induced both NLRP3 and NLRC4 | induced both NLRP3 and NLRC4 |  |  | neither incubation with adenine nor with N4A alone had an effect | neither incubation with adenine nor with N4A alone had an effect | neither incubation with adenine nor with N4A alone had an effect |  |  | potently induced secretion | potently induced secretion
5 | O[C@H]1[C@H](O)[C@@H](O)[C@H](O)[C@@H](O)[C@@H]1O [scyllo-inositol] | No effect | No effect |  |  |  |  |  |  |  |  | 
